According to PMC9181887, “In Vitro Antithrombotic, Hematological Toxicity, and Inhibitor Studies of Protocatechuic, Isovanillic, and p-Hydroxybenzoic Acids from Maclura tricuspidata (Carr.) Bur” (Molecules, 2022):

Test system: human platelet-poor plasma
Experiment: Recalcification time assay
Format: biochemical
Procedure: Figure 5 Effect of PA (A), IVA (B), and 4-HA (C) on recalcification time and plasma density. Human platelet-poor plasma was mixed with PA, IVA, and 4-HA dissolved in DMSO in 96-well plates and incubated for 10 min at 37 °C. Thereafter, 100 mM pre-warmed CaCl2 was added to the mixture and absorbance was taken every 60 s at 650 nm for 30 min in a microplate reader. The plasma density was presented as the optical density at 650 nm after 30 min. The half time (s) was presented as reaching a half-maximum absorbance value. NC1, plasma only; NC2, plasma treated with CaCl2; PC, positive control group (1 U heparin); PA1–20, 1–20 μg of PA treated; IVA1–20, 1–20 μg of IVA treated; 4-HA1–20, 1–20 μg of 4-HA treated.
Recalcification time was measured in a 96-well plate, according to a previously described method, with slight modifications. First, 50 μL of human platelet-poor plasma was mixed with 50 μL of the compounds, vehicle as NC2, or 1 U heparin as PC, and incubated at 37 °C for 10 min. Thereafter, 100 mM pre-warmed CaCl2 was added to the mixture and absorbance was measured at 650 nm every 1 min for 30 min using a microplate reader. The plasma density was presented as the absorbance at 650 nm after 30 min. The half time was presented as reaching a half-maximum absorbance value.

Substance: heparin [reference compound]
- plasma coagulation for 1800 s (1U): completely delayed
- Absorbance after Reaction (1 U heparin, 650 nm after 30 min, NC2 0.2094 ± 0.0305): 0.0184 ± 0.0016
